Assay results published in ChEMBL document CHEMBL5357020, “Reducing Self-Assembly by Increasing Net Charge: Effect on Biological Activity of Mastoparan C” (ACS Med Chem Lett, 2024).
The source made the active and inactive calls. The calls are words filed in the database; no cut-off is given here.

Tests used:
Bacillus cereus = experiment: Antimicrobial activity against Bacillus cereus ATCC 11778 assessed as reduction in microbial growth after 24 hrs by broth microdilution method; type: functional
Enterococcus faecalis = experiment: Antimicrobial activity against Enterococcus faecalis ATCC 29212 assessed as reduction in microbial growth after 24 hrs by broth microdilution method; type: functional
Pseudomonas aeruginosa = experiment: Antimicrobial activity against Pseudomonas aeruginosa ATCC 27853 assessed as reduction in microbial growth after 24 hrs by broth microdilution method; type: functional
Candida albicans = experiment: Antifungal activity against Candida albicans ATCC 10231 assessed as reduction in fungal growth after 24 hrs by broth microdilution method; type: functional
Salmonella enterica = experiment: Antimicrobial activity against Salmonella enterica ATCC 13076 assessed as reduction in microbial growth after 24 hrs by broth microdilution method; type: functional
Escherichia coli = experiment: Antimicrobial activity against Escherichia coli ATCC 25922 assessed as reduction in microbial growth after 24 hrs by broth microdilution method; type: functional
Listeria monocytogenes = experiment: Antimicrobial activity against Listeria monocytogenes ATCC 15313 assessed as reduction in microbial growth after 24 hrs by broth microdilution method; type: functional
Staphylococcus aureus = experiment: Antimicrobial activity against Staphylococcus aureus ATCC 25923 assessed as reduction in microbial growth after 24 hrs by broth microdilution method; type: functional
Erythrocyte [1] = experiment: Hemolytic activity in human RBC assessed as hemolysis at 2 to 128 uM incubated for 30 mins; type: toxicity, cell-based; conditions: 0.5 h, dose 2-128 µM
NCI-H441 = experiment: Anticancer activity against human NCI-H441 cells assessed as inhibition of cell growth incubated for 24 hrs by CCK-8 assay; type: functional, cell-based
A-427 = experiment: Anticancer activity against human A-427 cells assessed as inhibition of cell growth incubated for 24 hrs by CCK-8 assay; type: functional, cell-based; conditions: A-427, 24 h
Erythrocyte [2] = experiment: Hemolytic activity in human RBC assessed as hemolysis at 32 uM incubated for 30 mins; type: toxicity, cell-based; conditions: 0.5 h

Molecule | MIC (Bacillus cereus) [µM] | MIC (Enterococcus faecalis) [µM] | MIC (Pseudomonas aeruginosa) [µM] | MIC (Candida albicans) [µM] | MIC (Salmonella enterica) [µM] | MIC (Escherichia coli) [µM] | MIC (Listeria monocytogenes) [µM] | MIC (Staphylococcus aureus) [µM] | Activity (Erythrocyte [1]) | Activity (NCI-H441) | IC50 (A-427) [µM] | Activity (Erythrocyte [2])
NC[C@H]1O[C@H](O[C@H]2[C@H](O)[C@@H](O[C@H]3O[C@H](CO)[C@@H](O)[C@H](N)[C@H]3O)[C@H](N)C[C@@H]2N)[C@H](O)[C@@H](O)[C@@H]1O [KANAMYCIN] | 64 | > 128 | > 128 | > 128 | 16 | 32 | 32 | 32 | – | – | – | –
H-LNLKKLLAVAKKIL-NH2 | 16 | 8 | 128 | 32 | 64 | 8 | 8 | 64 | Non-Toxic | Active | 5.1 | –
H-LNLKKLLKVAKKIL-NH2 | 16 | 4 | 64 | 16 | 32 | 8 | 4 | 32 | Non-Toxic | – | – | –

The next molecules have a lower MIC (Bacillus cereus) than those just listed; values first:

MIC (Bacillus cereus) [µM] | MIC (Enterococcus faecalis) [µM] | MIC (Pseudomonas aeruginosa) [µM] | MIC (Candida albicans) [µM] | MIC (Salmonella enterica) [µM] | MIC (Escherichia coli) [µM] | MIC (Listeria monocytogenes) [µM] | MIC (Staphylococcus aureus) [µM] | Molecule | Activity (Erythrocyte [1]) | Activity (NCI-H441) | IC50 (A-427) [µM] | Activity (Erythrocyte [2])
8 | 64 | > 128 | > 128 | 8 | 8 | 64 | 32 | O=C(N[C@H](CO)[C@H](O)c1ccc([N+](=O)[O-])cc1)C(Cl)Cl [CHLORAMPHENICOL] | – | – | – | –
8 | 4 | 64 | 16 | 64 | 8 | 4 | 32 | H-LNLKALLKVAKKIL-NH2 | Non-Toxic | Active | 7 | Toxic
4 | 4 | 64 | 8 | 32 | 8 | 8 | 32 | H-LNLKALLAVAKKIL-NH2 | Non-Toxic | – | – | Toxic
